According to patent publication US12447242B2, “Hemostatic devices and methods of use” (MEDTRONIC INC., priority 2016, dated 2025):
Blank lines part the entries; values can stand above or below the compound they belong to.

Legend:
myofibroblast formation = settings: Ajmal et al. (2003); cited from earlier work
[1] = in vitro elution of rifampin and minocycline from p22-27.5 polymers with TXA in release media (Example 15); assay type: physicochemical; settings: PBS pH 7.4 without or with TXA (0.05 mg/mL, 5 mg/mL) in the release media, over 25 hours
[2] = stability of rifampin and minocycline in PBS with and without tranexamic acid (Example 14); assay type: physicochemical
blood [3] = assay: time to induce blood clotting in vitro, different hemostatic agents (Example 18); assay type: biochemical; settings: 1.2 mg of TXA alone
Description: Tests were conducted to compare the time required for different hemostatic agents to induce blood clotting in vitro versus the time required to induce blood clotting in vitro when no hemostatic agent is administered. In particular, the time required to induce blood clotting was plotted for blood alone, TYRX, Surgicel, TYRX with 1.6 mg of TXA, 1.2 mg of TXA alone, and TYRX with 200 mg of TXA. In this example, TYRX refers to a Glycoprene mesh that is coated with P22-27.5 (a polymer in the P22-X family) containing Rifampin and Minocycline.

blood [4] = assay: time to induce blood clotting in vitro in the presence of TYRX (Example 17); assay type: biochemical; design: dose or concentration left out as unconfirmed; settings: higher amounts of TXA
Description: Tests were conducted to compare the time required to induce blood clotting in vitro when different amounts of hemostatic agent is administered in the presence of TYRX (degradable mesh coated with P22-27.5 containing rifampin and minocycline), as shown in FIG. 24.

[5] = time to reach plasma concentrations; assay type: in vivo; settings: given preoperatively

Structure (SMILES): O=S(=O)([O-])CCS.[Na+] [MESNA, sodium 2-mercaptoethane sulfonate]
myofibroblast formation (myofibroblast formation): diminish myofibroblast formation

elution rate from p22-27.5 polymers [1]: not affected
percentage area of rifampin, mixtures with versus without tranexamic acid ([2]; rifampin and minocycline in PBS, regardless of the temperature (RT or 37° C.)): substantially the same
Structure (SMILES): CO[C@H]1/C=C/O[C@@]2(C)Oc3c(C)c(O)c4c(O)c(c(/C=N/N5CCN(C)CC5)c(O)c4c3C2=O)NC(=O)/C(C)=C\C=C\[C@H](C)[C@H](O)[C@@H](C)[C@@H](O)[C@@H](C)[C@H](OC(C)=O)[C@@H]1C [rifampin]

effect on the stability of rifampin and minocycline ([2]; PBS, RT and 37° C.): does not negatively affect
time to reach plasma concentrations [5]: 5 to 15 min
Structure (SMILES): NC[C@H]1CC[C@H](C(=O)O)CC1 [tranexamic acid]
time to induce blood clotting in vitro (blood [3]): about 19 minutes
clotting time (blood [4]): increased
